From US20240174684A1, “INHIBITORS OF cGAS ACTIVITY AS THERAPEUTIC AGENTS” (BELLBROOK LABS, LLC, priority 2021, published 2024) come the findings set out here.

The test system of data set [1] is MDR1 (P-glycoprotein). The experiment in a line: MDCK-MDR1 permeability A→B. The data set is classed as in vitro ADME, Canine. As to conditions: dog; MDCK cells expressing human MDR1, A→B; read-out: MDCK-MDR Permeability A→B. As to the method: (§1) ADME studies: Compound A and the compounds of the disclosure were tested for aqueous solubility (KSOL), metabolic stability (human and mouse […]) and permeability (Caco-2 and/or MDR1-MDCK cells) to provide an initial indication of oral bioavailability.
(§2) The favorable physicochemical properties are reflected in promising results in in vitro ADME tests. […] Metabolic stability, which was routinely measured with mouse and human hepatocytes, is outstanding, with t, greater than 2 hours for all of the compounds of the disclosure in which it has been measured. Cell permeability was measured using MDCK cells expressing human MDR1 (P-glycoprotein) to assess passive permeability as well as active transport out of the cell. […] Numerous compounds in Table 1 meet these permeability criteria, which is consistent with their design for TPSA <140 Å^2 and increased lipophilicity.
(§3) The MDCK-MDR1 permeability A ->B is shown in Table 2 below, where A represents 5-10 cm/s×10^−6; B represents 1-5 cm/s×10^−6; and C represents <1 cm/ss×10^−6. The metabolic stability half time, in both mouse and human hepatocytes, is also shown in Table 2 below, where A′ represents 100-200 minutes; B′ represents 200-300 minutes; and C′ represents >300 minutes.

Data set [2] concerns IFNβ production in THP-1 cells. The experiment in a line: IFNβ ELISA in THP-1 cells. It is filed as cell-based, human. As to conditions: Homo sapiens; THP-1 cells. The source says:
(§4) Cellular assays: The human monocyte cell line THP-1 and human primary PBMCs were used to evaluate the cellular activity of compounds with good biochemical potency. These cells produce a robust cGAS/STING-dependent type I IFN response when stimulated with dsDNA and other pathogen-associated molecular patterns, which was detected using a standard ELISA for IFNβ (R&D Systems). The TBK1 inhibitor, BX-795, which acts downstream of cGAS/STING, was used as a probe.
CETSA was also used to confirm that the compounds are binding to cGAS in cells; THP-1 cells are used for this analysis. Compounds were tested in dose response mode by incubating with cells for 1.5 hours at 37° C., followed by pelleting and re-suspending in PBS, heating to 51.5° C. for 3 min and cooling to room temp. Cells were then lysed, debris, including denatured cGAS, was pelleted and the supernatant was analyzed for soluble cGAS by Western Blot using anti-cGAS primary Ab (Cell Signaling). Band intensity was analyzed using Image J software. Stimulation with cGAMP directly activates STING, circumventing cGAS; this was used to determine if compounds had effects on downstream components of cGAS/STING signaling. The IFN-6 ELISA was used as the primary measure of cellular potency and selectivity (Table 3) and used the reporter gene assays for assessing off-target activity with other pattern recognition receptors.
(§5) The ICso values for IFNB ELISA stimulated with THP-1, PBMC, DNA, and cGAMP were determined for several exemplary compounds of the invention, and are provided in Table 3 where A represents <1 μM; B represents 1-2.5 μM; C represents 2.5-10 μM; D represents 10-20 μM; and E represents >20 μM.
In general terms: An ELISA detects its analyte on a solid surface through an enzyme-linked reagent.

The target of data set [3] is cGAS (Homo sapiens, UniProt Q8N884). The experiment in a line: Transcreener cGAS enzymatic assay (FP). The data set is classed as biochemical. How it is done:
Structural, biochemical and biophysical analysis and selectivity profiling: Potency and MOA studies, including Mn^2+ sensitivity, were performed using the Transcreener cGAS enzymatic assay, which is manufactured at BellBrook Labs (Fitchburg, Wisconsin, USA). This homogenous cGAS enzymatic assay was developed with fluorescence polarization (FP) and time-resolved Forster resonance energy transfer (TR-FRET) readouts, as described in International Patent Publication WO 2020/142729, incorporated by reference herein in its entirety. Plates are read on a PHERAstar FSX multimode reader (BMG). The compounds of the disclosure were tested for inhibition of cGAS ([…]) using this cGAS enzymatic assay under standard conditions (100 μM ATP and GTP, 62.5 nM bp ISD, 60 minute reactions), high ATP and GTP (1 mM) to mimic physiological conditions, in the presence of 200 μM MnCl2, and with mouse cGAS under standard conditions.
The IC50 values for FP under standard and under physiological conditions were determined for several exemplary compounds of the invention. The relative activities for FP Standard IC50 are shown in Table 2 below, where A represents <50 nM; B represents 50-100 nM; C represents 100-200 nM; D represents 200 nM-1μM; and E represents 1-10 μM. For the relative activities for FP Physiological IC50, A′ represents <200 nM; B′ represents 200-500 nM; C′ represents 500 nM-1μM; D′ represents 1-5 μM; and E′ represents >5 μM.

Data set [4] has as its system IFN-β production in PBMCs. The experiment in a line: IFNβ ELISA in human primary PBMCs. It is filed as cell-based. As to conditions: PBMC.
Source text: as §4, §5
The reporter gene assays were used to assess off-target activity with IRF30Luc (RIG-1) or NFKB (TLR4); CellTiter Glo (ATP levels) and Presto Blue (reducing equivalents) were used to assess cytotoxicity; all assays were performed in dose response mode. […] The inventors recently began using human PBMCs to assess cellular potency in a more physiologically relevant context.

For data set [5], the system named is MDCK cells expressing human MDR1 (P-glycoprotein). The experiment in a line: MDCK-MDR1 permeability A→B. It is filed as in vitro ADME, Canine. How it is done:
as §1, §2, §3

Where [6] appears, read: high ATP and GTP (1 mM) to mimic physiological conditions, read-out: IC50 FP Physiological.
[7] abbreviates: standard conditions: 100 μM ATP and GTP, 62.5 nM bp ISD, 60 minute reactions, read-out: IC50 FP Standard.

For orientation: IC50 means the concentration that inhibits the measured activity by half.

Each structure is given as a SMILES string. Read-outs that look alike come from different tables or passages of the source.

Chain of cGAS (Q8N884 whole entry): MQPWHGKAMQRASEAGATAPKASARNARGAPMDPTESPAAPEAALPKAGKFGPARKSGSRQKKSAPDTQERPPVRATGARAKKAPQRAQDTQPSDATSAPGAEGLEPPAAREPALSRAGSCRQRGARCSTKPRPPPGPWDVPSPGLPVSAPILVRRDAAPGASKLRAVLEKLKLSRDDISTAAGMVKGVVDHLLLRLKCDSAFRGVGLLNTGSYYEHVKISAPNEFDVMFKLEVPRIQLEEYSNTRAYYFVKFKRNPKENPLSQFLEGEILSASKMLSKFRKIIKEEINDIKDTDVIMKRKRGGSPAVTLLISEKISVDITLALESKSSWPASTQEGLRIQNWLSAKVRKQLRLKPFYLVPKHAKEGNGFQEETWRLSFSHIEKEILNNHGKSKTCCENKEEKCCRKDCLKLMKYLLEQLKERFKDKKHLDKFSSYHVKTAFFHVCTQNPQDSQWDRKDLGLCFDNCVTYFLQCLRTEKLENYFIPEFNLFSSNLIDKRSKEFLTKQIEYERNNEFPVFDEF

As for `Cc1ccc(NC(=O)C[C@H]2C[C@@H](C(=O)O)N(c3nc(C)nc4c3oc3ccccc34)C2)cc1` [Compound 15, (2S,4R)-1-(2-methylbenzofuro[3,2-d]pyrimidin-4-yl)-4-(2-oxo-2-(p-tolylamino)ethyl)pyrrolidine-2-carboxylic acid], the Papp A→B in data set [1] fell in the range of 1 to 5 ×10⁻⁶ cm/s. The IC50 was more than 20 µM in data set [2], 1 to 5 µM in data set [3] (setting [6]) and 0.2 to 1 µM in data set [3] (setting [7]).

In the case of `Cc1cccc(NC(=O)C[C@H]2C[C@@H](C(=O)O)N(c3nc(C)nc4c3oc3ccccc34)C2)c1` [Compound 16, (28.4R)-1-(2-methylbenzofuro[3,2-d]pyrimidin-4-yl)-4-(2-oxo-2-(m-tolylamino)ethyl)pyrrolidine-2-carboxylic acid], in data set [1], the Papp A→B lay in the range of 1 to 5 ×10⁻⁶ cm/s. Also, the concentration for half-maximal inhibition (IC50) in data set [2] was more than 20 µM; in data set [3] (setting [6]), 1 to 5 µM; in data set [3] (setting [7]) it was 0.2 to 1 µM.

Take `Cc1nc(N2C[C@@H](CC(=O)Nc3cccc(F)c3)C[C@H]2C(=O)O)c2oc3ccccc3c2n1` [Compound 19, (2S,4R)-4-(2-((3-fluorophenyl)amino)-2-oxoethyl)-1-(2-methylbenzofuro[3,2-d]pyrimidin-4-yl)pyrrolidine-2-carboxylic acid]: the Papp A→B in data set [1] was in the range of 1 to 5 ×10⁻⁶ cm/s. Moreover, the IC50 in data set [2] lay within 10 to 20 µM; in data set [3] (setting [6]), 1 to 5 µM; in data set [3] (setting [7]), 0.2 to 1 µM.

As for `Cc1nc(N2C[C@@H](CC(=O)Nc3ccccc3F)C[C@H]2C(=O)O)c2oc3ccccc3c2n1` [Compound 20, (2S,4R)-4-(2-((2-fluorophenyl)amino)-2-oxoethyl)-1-(2-methylbenzofuro[3,2-d]pyrimidin-4-yl)pyrrolidine-2-carboxylic acid], in data set [1], the Papp A→B was in the range of 1 to 5 ×10⁻⁶ cm/s. In addition, the IC50 in data set [2] was more than 20 µM; in data set [3] (setting [6]) it was more than 5 µM; in data set [3] (setting [7]), 0.2 to 1 µM.

With `Cc1nc(N2C[C@@H](CC(=O)Nc3ccc(Cl)cc3)C[C@H]2C(=O)O)c2oc3ccccc3c2n1` [Compound 21, (28.4R)-4-(2-((4-chlorophenyl)amino)-2-oxoethyl)-1-(2-methylbenzofuro[3,2-d]pyrimidin-4-yl)pyrrolidine-2-carboxylic acid], in data set [1], the Papp A→B is 1 to 5 ×10⁻⁶ cm/s. Further, the half-maximal inhibitory concentration (IC50) in data set [2] fell in the range of 10 to 20 µM; in data set [3] (setting [6]), 1 to 5 µM; in data set [3] (setting [7]), 0.1 to 0.2 µM.

In the case of `Cc1nc(N2C[C@@H](CC(=O)Nc3ccccc3Cl)C[C@H]2C(=O)O)c2oc3ccccc3c2n1` [Compound 23, (28.4R)-4-(2-((2-chlorophenyl)amino)-2-oxoethyl)-1-(2-methylbenzofuro[3,2-d]pyrimidin-4-yl)pyrrolidine-2-carboxylic acid], in data set [1], the Papp A→B was in the range of 1 to 5 ×10⁻⁶ cm/s. The results for the IC50 in data set [2], in data set [3] (setting [6]) and in data set [3] (setting [7]) were more than 20 µM, more than 5 µM and 0.2 to 1 µM, respectively.

On to `Cc1nc(N2C[C@@H](CC(=O)Nc3cccc(C(F)(F)F)c3)C[C@H]2C(=O)O)c2oc3ccccc3c2n1` [Compound 25, (2S,4R)-1-(2-methylbenzofuro[3,2-d]pyrimidin-4-yl)-4-(2-oxo-2-((3-(trifluoromethyl)phenyl)amino)ethyl)pyrrolidine-2-carboxylic acid], for which, in data set [1], the Papp A→B was 1 to 5 ×10⁻⁶ cm/s. The IC50 in data set [2] is 10 to 20 µM; in data set [3] (setting [6]), more than 5 µM; in data set [3] (setting [7]), 0.2 to 1 µM.

With `Cc1nc(N2C[C@@H](CC(=O)Nc3ccc(-c4ccc5cn[nH]c5c4)cc3)C[C@H]2C(=O)O)c2oc3ccccc3c2n1` [Compound 39, (28.4R)-4-(2-((4-(1H-indazol-6-yl)phenyl)amino)-2-oxoethyl)-1-(2-methylbenzofuro[3,2-d]pyrimidin-4-yl)pyrrolidine-2-carboxylic acid], the IC50 in data set [4] is 2.5 to 10 µM; in data set [2], 2.5 to 10 µM; in data set [3] (setting [6]), 0.5 to 1 µM; in data set [3] (setting [7]) it was 0.1 to 0.2 µM.

As to `Cc1nc(N2C[C@@H](CC(=O)Nc3ccc(-c4ccc(N)nc4)cc3)C[C@H]2C(=O)O)c2oc3ccccc3c2n1` [Compound 40, (2S,4R)-4-(2-((4-(6-aminopyridin-3-yl)phenyl)amino)-2-oxoethyl)-1-(2-methylbenzofuro[3,2-d]pyrimidin-4-yl)pyrrolidine-2-carboxylic acid], the IC50 in data set [4] is more than 20 µM; in data set [2], 10 to 20 µM; in data set [3] (setting [6]) it was 0.2 to 0.5 µM; in data set [3] (setting [7]), less than 0.05 µM.

As for `Cc1nc(N2C[C@@H](CC(=O)Nc3ccc(-c4ccnc(N)c4)cc3)C[C@H]2C(=O)O)c2oc3ccccc3c2n1` [Compound 41, (28.4R)-4-(2-((4-(2-aminopyridin-4-yl)phenyl)amino)-2-oxoethyl)-1-(2-methylbenzofuro[3,2-d]pyrimidin-4-yl)pyrrolidine-2-carboxylic acid], the IC50 was more than 20 µM in data set [4], more than 20 µM in data set [2], 0.5 to 1 µM in data set [3] (setting [6]) and 0.1 to 0.2 µM in data set [3] (setting [7]).

For `COc1cccc(-c2ccc(NC(=O)C[C@H]3C[C@@H](C(=O)O)N(c4nc(C)nc5c4oc4ccccc45)C3)cc2)c1` [Compound 50, (2S,4R)-4-(2-((3′-methoxy-[1,1′-biphenyl]-4-yl)amino)-2-oxoethyl)-1-(2-methylbenzofuro[3,2-d]pyrimidin-4-yl)pyrrolidine-2-carboxylic acid], the Papp A→B in data set [1] is 5 to 10 ×10⁻⁶ cm/s. Further, the IC50 in data set [2] was less than 1 µM; in data set [3] (setting [6]), 0.2 to 0.5 µM; in data set [3] (setting [7]) it was less than 0.05 µM.

In the case of `Cc1nc(N2C[C@@H](CC(=O)Nc3cccc(N4CCC(O)CC4)c3)C[C@H]2C(=O)O)c2oc3ccccc3c2n1` [Compound 58, (2S,4R)-4-(2-((3-(4-hydroxypiperidin-1-yl)phenyl)amino)-2-oxoethyl)-1-(2-methylbenzofuro[3,2-d]pyrimidin-4-yl)pyrrolidine-2-carboxylic acid], in data set [5], the “MDCK-MDR Permeability A→B” value is listed as “C (C represents <1 cm/ss×10^−6)”. Besides, the concentration for half-maximal inhibition (IC50) is more than 20 µM in data set [2], 1 to 5 µM in data set [3] (setting [6]) and 0.2 to 1 µM in data set [3] (setting [7]).

`Cc1nc(N2C[C@@H](CC(=O)Nc3ccc(-c4ccccc4)cn3)C[C@H]2C(=O)O)c2oc3ccccc3c2n1` [Compound 67, (2S,4R)-1-(2-methylbenzofuro[3,2-d]pyrimidin-4-yl)-4-(2-oxo-2-((5-phenylpyridin-2-yl)amino)ethyl)pyrrolidine-2-carboxylic acid]: in data set [1], the Papp A→B lay in the range of 5 to 10 ×10⁻⁶ cm/s. Further, the IC50 in data set [2] lay within 2.5 to 10 µM; in data set [3] (setting [6]) it was 0.5 to 1 µM; in data set [3] (setting [7]) it was 0.05 to 0.1 µM.
